The term IC50 denotes the concentration that inhibits the measured activity by half.

These results are taken from ChEMBL document CHEMBL4480432, “Expansion of a novel lead targeting M. tuberculosis DHFR as antitubercular agents” (Bioorg Med Chem, 2019).

Converted amounts (≈) assume the structure as drawn.

The subject of one series is DHFR (human versus Mycobacterium tuberculosis H37Rv). Kind of series: Selectivity index, ratio of IC50 for human DHFR to IC50 for Mycobacterium tuberculosis H37Rv DHFR expressed in Escherichia coli BL21(DE3). The class given is toxicity. Particulars: human and Mycobacterium tuberculosis H37Rv; read-out: Ratio IC50.
Take `CC(=O)c1c(C)n(Cc2ccccc2)c2ccc(OCc3cn(-c4cccc(Cl)c4)nn3)cc12`: the selectivity ratio came out at 4.17.

Another series concerns Mycobacterium tuberculosis. The series is described as follows: microbe, parasite or virus in culture. The settings on record: H37Rv ATCC 27294, 168 h.
Description: Antitubercular activity against Mycobacterium tuberculosis H37Rv ATCC 27294 after 7 days by microplate alamar blue method
Molecule `CO[C@H]1/C=C/O[C@@]2(C)Oc3c(C)c(O)c4c(O)c(c(/C=N/N5CCN(C)CC5)c(O)c4c3C2=O)NC(=O)/C(C)=C\C=C\[C@H](C)[C@H](O)[C@@H](C)[C@@H](O)[C@@H](C)[C@H](OC(C)=O)[C@@H]1C` [RIFAMPIN] registered an MIC of 0.25 µM (≈ 0.206 µg/mL).
As for `CC(=O)c1c(C)n(Cc2ccccc2)c2ccc(OCc3cn(-c4ccc(C#N)cc4)nn3)cc12`, the MIC was 54.2 µM (≈ 25 µg/mL).
In turn, `CCOC(=O)c1c(C)n(Cc2ccccc2)c2ccc(OCc3cn(-c4cccc(Cl)c4)nn3)cc12` had an MIC of 50.2 µM (≈ 25.1 µg/mL).
On the same count and under the same terms, then `CN(Cc1cnc2nc(N)nc(N)c2n1)c1ccc(C(=O)N[C@@H](CCC(=O)O)C(=O)O)cc1` [METHOTREXATE], with 3.38 µM (≈ 1.54 µg/mL); and `CC(=O)c1c(C)n(Cc2ccccc2)c2ccc(OCc3cn(-c4ccc([N+](=O)[O-])cc4)nn3)cc12`, with 12.9 µM (≈ 6.21 µg/mL).
`CC(=O)c1c(C)n(Cc2ccccc2)c2ccc(OCc3cn(-c4ccc(C)cc4)nn3)cc12` showed an MIC of 55.5 µM (≈ 25 µg/mL).
On the same count and under the same terms, the result for `CCOC(=O)c1c(C)n(Cc2ccccc2)c2ccc(OCc3cn(-c4ccc(C#N)cc4)nn3)cc12` reads 12.7 µM (≈ 6.25 µg/mL).
The molecule `CCc1ccc(-n2cc(COc3ccc4c(c3)c(C(C)=O)c(C)n4Cc3ccccc3)nn2)cc1` registered an MIC of 26.9 µM (≈ 12.5 µg/mL).
Still for that read-out and setting: the result for `CC(=O)c1c(C)n(Cc2ccccc2)c2ccc(OCc3cn(-c4ccc(C)c(C)c4)nn3)cc12` reads 53.8 µM (≈ 25 µg/mL).
The molecule `CCOC(=O)c1c(C)n(Cc2ccccc2)c2ccc(OCc3cn(-c4ccc(C(F)(F)F)cc4)nn3)cc12` yielded an MIC of 46.8 µM (≈ 25 µg/mL).
The molecule `CC(=O)c1c(C)n(Cc2ccccc2)c2ccc(OCc3cn(-c4ccc(C(F)(F)F)cc4)nn3)cc12` gave an MIC of 49.5 µM (≈ 25 µg/mL).
Still for that read-out and setting: then `CCOC(=O)c1c(C)n(Cc2ccccc2)c2ccc(OCc3cn(-c4ccc(CC)cc4)nn3)cc12`, with 50.6 µM (≈ 25 µg/mL); and `CC(=O)c1c(C)n(Cc2ccccc2)c2ccc(OCc3cn(-c4ccc(F)cc4)nn3)cc12`, with 55 µM (≈ 25 µg/mL); and `CCOC(=O)c1c(C)n(Cc2ccccc2)c2ccc(OCc3cn(-c4ccc(C)cc4)nn3)cc12`, with 26 µM (≈ 12.5 µg/mL).
Still for that read-out and setting: then `CC[C@@H](CO)NCCN[C@@H](CC)CO` [ETHAMBUTOL], with 16.5 µM (≈ 3.37 µg/mL); and `CCOC(=O)c1c(C)n(Cc2ccccc2)c2ccc(OCc3cn(-c4ccc(F)cc4)nn3)cc12`, with 51.6 µM (≈ 25 µg/mL).
Same read-out and setting: the result for `CCOC(=O)c1c(C)n(Cc2ccccc2)c2ccc(OCc3cn(-c4ccccc4OC)nn3)cc12` reads 50.4 µM (≈ 25 µg/mL).
On to `CCOC(=O)c1c(C)n(Cc2ccccc2)c2ccc(OCc3cn(-c4ccc(Br)cc4)nn3)cc12`, for which the MIC stood at 45.9 µM (≈ 25.1 µg/mL).
`O=C(O)c1cn(C2CC2)c2cc(N3CCNCC3)c(F)cc2c1=O` [CIPROFLOXACIN] registered an MIC of 4.7 µM (≈ 1.56 µg/mL).
`CCOC(=O)c1c(C)n(Cc2ccccc2)c2ccc(OCc3cn(-c4ccc([N+](=O)[O-])cc4)nn3)cc12` yielded an MIC of 48.9 µM (≈ 25 µg/mL).
In turn, `CC(=O)c1c(C)n(Cc2ccccc2)c2ccc(OCc3cn(-c4cccc(Cl)c4)nn3)cc12` displayed an MIC of 6.64 µM (≈ 3.13 µg/mL).
Still for that read-out and setting: then `NNC(=O)c1ccncc1` [ISONIAZID], with 0.73 µM (≈ 0.1 µg/mL); and `CC(=O)c1c(C)n(Cc2ccccc2)c2ccc(OCc3cn(-c4ccc(Cl)cc4)nn3)cc12`, with 53.1 µM (≈ 25 µg/mL); and `COc1ccccc1-n1cc(COc2ccc3c(c2)c(C(C)=O)c(C)n3Cc2ccccc2)nn1`, with 53.6 µM (≈ 25 µg/mL).

A further series concerns the target T1, Dihydrofolate reductase (Homo sapiens, UniProt P00374).
T1 sequence (P00374 whole entry): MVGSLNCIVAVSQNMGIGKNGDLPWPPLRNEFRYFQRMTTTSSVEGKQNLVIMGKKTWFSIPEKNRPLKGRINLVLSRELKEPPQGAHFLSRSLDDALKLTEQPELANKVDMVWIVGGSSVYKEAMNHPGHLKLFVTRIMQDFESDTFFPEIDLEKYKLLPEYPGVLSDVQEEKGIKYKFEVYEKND
Kind of series: Inhibition of human DHFR assessed as reduction in consumption of NADPH using DHF as substrate preincubated for 1 min followed by DHF addition and measured for 2 mins by spectrophotometric method.
Details: not given
Regarding `CC(=O)c1c(C)n(Cc2ccccc2)c2ccc(OCc3cn(-c4cccc(Cl)c4)nn3)cc12`, the IC50 is 180 µM.

The target of another series is T2, Dihydrofolate reductase (Mycobacterium tuberculosis, UniProt P9WNX1).
T2 sequence (P9WNX1 whole entry): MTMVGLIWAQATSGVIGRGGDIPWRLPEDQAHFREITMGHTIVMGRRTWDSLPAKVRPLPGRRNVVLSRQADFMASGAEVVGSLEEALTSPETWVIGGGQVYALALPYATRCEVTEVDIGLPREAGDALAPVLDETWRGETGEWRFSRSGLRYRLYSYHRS
Kind of series: Inhibition of Mycobacterium tuberculosis H37Rv DHFR expressed in Escherichia coli BL21(DE3) assessed as reduction in consumption of NADPH using DHF as substrate preincubated for 1 min followed by DHF addition and measured for 2 mins by spectrophotometric method.
Details: not given
On to `CC(=O)c1c(C)n(Cc2ccccc2)c2ccc(OCCCC(=O)O)cc12`, for which the IC50 is 25 µM.
On the same count and under the same terms, the result for `CC(=O)c1c(C)n(Cc2ccccc2)c2ccc(OCc3cn(-c4cccc(Cl)c4)nn3)cc12` reads 43.1 µM.
